# Source: ChEMBL document CHEMBL1201862, “PubChem BioAssay data set” (2004)
# The source made the active and inactive calls.
# Key:
# Exodeoxyribonuclease V = molecular target: T1, Exodeoxyribonuclease V (Escherichia coli (strain K12), UniProt P04993+P07648+P08394); assay: RecBCD inhibition via phage-restricted bacterial growth – absorbance, V66 E. coli, mutant T4 phage, counter-screen for AddAB inhibitor project, dose response (AID 492957); format: functional, cell-based, Escherichia coli str. K-12 substr. MG1655
# T1 sequence (P04993 whole entry): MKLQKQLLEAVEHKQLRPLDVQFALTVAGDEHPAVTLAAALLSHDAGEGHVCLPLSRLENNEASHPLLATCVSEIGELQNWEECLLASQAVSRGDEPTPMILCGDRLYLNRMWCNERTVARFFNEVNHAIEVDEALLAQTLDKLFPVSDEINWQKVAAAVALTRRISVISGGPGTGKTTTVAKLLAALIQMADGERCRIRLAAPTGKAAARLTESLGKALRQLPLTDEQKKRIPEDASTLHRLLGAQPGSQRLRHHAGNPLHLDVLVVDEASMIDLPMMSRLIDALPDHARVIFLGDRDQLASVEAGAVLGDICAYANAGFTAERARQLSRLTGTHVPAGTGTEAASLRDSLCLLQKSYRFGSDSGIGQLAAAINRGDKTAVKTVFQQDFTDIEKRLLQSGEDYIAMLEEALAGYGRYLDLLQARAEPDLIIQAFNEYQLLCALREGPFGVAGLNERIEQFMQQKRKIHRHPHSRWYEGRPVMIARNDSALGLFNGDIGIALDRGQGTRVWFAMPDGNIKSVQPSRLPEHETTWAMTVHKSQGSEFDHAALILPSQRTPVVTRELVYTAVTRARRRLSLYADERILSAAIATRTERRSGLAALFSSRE
# T1 sequence (P07648 whole entry): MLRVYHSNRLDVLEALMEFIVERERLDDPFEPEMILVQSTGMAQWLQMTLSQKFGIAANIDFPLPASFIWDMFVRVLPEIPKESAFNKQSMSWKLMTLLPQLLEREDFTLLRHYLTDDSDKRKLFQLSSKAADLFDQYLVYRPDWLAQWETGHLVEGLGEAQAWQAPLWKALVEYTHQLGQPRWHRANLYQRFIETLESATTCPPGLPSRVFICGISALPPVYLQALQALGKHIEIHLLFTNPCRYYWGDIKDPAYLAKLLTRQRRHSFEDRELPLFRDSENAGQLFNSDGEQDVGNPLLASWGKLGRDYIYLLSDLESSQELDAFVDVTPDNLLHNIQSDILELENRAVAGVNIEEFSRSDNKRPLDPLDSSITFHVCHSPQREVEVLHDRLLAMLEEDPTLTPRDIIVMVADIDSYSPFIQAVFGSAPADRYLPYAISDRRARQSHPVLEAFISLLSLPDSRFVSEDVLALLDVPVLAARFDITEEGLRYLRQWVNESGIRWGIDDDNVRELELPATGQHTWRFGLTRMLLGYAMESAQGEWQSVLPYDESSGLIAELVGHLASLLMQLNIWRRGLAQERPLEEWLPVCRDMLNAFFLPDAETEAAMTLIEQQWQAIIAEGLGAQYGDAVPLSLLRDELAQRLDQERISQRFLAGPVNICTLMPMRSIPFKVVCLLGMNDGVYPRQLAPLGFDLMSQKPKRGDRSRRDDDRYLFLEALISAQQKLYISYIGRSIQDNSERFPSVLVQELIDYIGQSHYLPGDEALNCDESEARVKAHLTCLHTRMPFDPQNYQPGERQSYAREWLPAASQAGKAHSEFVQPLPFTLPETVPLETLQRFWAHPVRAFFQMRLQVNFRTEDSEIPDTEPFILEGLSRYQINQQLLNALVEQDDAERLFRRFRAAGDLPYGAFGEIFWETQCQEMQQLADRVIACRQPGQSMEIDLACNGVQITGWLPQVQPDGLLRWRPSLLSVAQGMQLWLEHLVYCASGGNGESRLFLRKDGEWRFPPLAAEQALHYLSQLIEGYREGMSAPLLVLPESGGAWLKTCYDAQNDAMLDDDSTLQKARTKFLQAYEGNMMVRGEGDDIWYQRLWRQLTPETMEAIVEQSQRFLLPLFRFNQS
# T1 sequence (P08394 whole entry): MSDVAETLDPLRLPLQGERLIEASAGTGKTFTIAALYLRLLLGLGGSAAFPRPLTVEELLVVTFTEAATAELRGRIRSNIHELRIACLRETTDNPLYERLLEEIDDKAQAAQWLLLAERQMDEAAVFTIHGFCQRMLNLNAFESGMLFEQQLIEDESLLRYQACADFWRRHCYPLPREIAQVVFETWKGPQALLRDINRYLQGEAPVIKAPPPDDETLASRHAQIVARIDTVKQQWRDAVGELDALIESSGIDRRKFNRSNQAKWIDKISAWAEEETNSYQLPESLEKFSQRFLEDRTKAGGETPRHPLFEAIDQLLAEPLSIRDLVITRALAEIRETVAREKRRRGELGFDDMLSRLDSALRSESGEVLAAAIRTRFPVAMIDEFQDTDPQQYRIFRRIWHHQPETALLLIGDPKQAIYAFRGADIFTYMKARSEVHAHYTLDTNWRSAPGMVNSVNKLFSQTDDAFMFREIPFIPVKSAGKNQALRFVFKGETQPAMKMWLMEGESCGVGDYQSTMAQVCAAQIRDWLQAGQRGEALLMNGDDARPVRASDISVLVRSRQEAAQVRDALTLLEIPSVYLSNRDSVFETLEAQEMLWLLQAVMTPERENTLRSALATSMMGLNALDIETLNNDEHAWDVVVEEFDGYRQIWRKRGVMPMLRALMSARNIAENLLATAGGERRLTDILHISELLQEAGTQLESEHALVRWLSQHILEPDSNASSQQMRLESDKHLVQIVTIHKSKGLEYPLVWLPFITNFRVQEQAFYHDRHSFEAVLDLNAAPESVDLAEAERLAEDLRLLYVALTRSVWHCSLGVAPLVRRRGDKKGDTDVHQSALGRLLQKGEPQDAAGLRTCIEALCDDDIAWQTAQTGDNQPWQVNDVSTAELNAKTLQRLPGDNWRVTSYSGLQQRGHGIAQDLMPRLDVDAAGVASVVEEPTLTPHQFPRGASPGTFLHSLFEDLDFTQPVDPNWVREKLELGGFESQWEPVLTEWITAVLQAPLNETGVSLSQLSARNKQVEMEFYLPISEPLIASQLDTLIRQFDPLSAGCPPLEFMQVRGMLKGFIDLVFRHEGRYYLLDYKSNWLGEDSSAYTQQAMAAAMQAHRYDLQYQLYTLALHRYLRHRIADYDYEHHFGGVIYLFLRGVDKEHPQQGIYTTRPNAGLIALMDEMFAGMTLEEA
# [1] = loss of viability in HepG2 cells – cell-based, CellTiter-Glo, cherry-picked, cytotoxicity control for Shn3 inhibitor project, dose response (AID 624134); format: functional
# [2] = molecular target: Cyclin-dependent kinase 1 (Homo sapiens, UniProt P06493); format: functional;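 note: Kinome-wide panel profiling, with the target listed as panel member CDC2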
# Chain of Cyclin-dependent kinase 1 (P06493 whole entry): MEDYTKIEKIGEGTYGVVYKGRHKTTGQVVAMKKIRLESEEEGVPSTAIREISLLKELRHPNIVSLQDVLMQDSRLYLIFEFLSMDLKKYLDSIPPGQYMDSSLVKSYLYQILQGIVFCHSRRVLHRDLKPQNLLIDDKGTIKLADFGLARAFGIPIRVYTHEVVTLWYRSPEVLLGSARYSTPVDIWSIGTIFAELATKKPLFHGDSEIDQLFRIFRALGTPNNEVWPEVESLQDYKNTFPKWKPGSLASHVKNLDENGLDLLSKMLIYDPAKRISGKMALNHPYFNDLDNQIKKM
# [3] = molecular target: Mitogen-activated protein kinase 1 (Homo sapiens, UniProt P28482); format: functional
# Chain of Mitogen-activated protein kinase 1 (P28482 whole entry): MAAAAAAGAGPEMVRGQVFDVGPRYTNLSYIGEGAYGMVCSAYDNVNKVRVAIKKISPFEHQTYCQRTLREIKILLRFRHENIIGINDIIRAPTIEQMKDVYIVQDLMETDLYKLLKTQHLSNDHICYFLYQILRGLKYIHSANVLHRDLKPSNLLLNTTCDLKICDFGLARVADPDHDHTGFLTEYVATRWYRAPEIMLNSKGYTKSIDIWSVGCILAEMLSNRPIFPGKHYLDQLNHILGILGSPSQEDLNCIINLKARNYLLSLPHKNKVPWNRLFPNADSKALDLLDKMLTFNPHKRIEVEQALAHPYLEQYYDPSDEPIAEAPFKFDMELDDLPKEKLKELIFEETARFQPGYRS
# [4] = molecular target: Proto-oncogene tyrosine-protein kinase Src (Homo sapiens, UniProt P12931); format: functional;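 note: SRC entry within a kinome-wide kinase profiling panel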
# Chain of Proto-oncogene tyrosine-protein kinase Src (P12931 2-536 limits assumed): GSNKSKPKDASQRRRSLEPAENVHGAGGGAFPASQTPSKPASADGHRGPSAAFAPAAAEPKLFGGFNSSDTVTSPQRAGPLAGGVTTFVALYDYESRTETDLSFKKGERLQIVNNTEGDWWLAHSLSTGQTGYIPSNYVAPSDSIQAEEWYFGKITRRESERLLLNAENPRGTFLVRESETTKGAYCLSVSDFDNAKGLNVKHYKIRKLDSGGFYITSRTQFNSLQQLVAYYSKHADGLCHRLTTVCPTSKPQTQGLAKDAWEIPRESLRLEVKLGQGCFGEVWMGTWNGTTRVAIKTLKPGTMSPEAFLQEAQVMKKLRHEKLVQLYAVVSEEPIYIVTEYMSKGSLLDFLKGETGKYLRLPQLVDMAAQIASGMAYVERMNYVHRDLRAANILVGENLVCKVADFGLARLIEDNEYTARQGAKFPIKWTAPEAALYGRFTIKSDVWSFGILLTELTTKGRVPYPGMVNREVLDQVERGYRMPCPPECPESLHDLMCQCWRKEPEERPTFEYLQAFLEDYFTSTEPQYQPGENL
# [5] = molecular target: Serine/threonine-protein kinase PLK3 (Homo sapiens, UniProt Q9H4B4); format: functional
# Chain of Serine/threonine-protein kinase PLK3 (Q9H4B4 whole entry): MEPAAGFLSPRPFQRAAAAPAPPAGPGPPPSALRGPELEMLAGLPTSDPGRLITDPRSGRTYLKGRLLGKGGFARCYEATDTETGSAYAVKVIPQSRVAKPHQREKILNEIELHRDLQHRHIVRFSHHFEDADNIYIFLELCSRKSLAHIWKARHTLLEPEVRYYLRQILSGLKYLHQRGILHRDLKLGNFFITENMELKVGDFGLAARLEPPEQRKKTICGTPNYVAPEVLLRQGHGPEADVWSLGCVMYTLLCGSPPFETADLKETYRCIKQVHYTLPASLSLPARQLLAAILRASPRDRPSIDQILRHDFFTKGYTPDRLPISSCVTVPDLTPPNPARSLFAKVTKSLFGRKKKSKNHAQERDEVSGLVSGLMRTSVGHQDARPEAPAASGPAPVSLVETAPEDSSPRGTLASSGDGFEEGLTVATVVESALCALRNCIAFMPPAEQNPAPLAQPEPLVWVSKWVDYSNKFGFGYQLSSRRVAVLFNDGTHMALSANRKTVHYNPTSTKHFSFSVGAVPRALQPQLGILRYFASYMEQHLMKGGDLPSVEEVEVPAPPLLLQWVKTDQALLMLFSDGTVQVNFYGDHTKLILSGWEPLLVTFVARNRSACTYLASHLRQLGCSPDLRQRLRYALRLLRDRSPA
Ki [2],Ki [3],Ki [4],Ki [5],SMILES,IC50 (Exodeoxyribonuclease V),AC50 [1]
–,–,–,–,Cc1cc(NC(c2ccc(Cl)cc2)c2ccc3cccnc3c2O)no1 (stereo unspecified),> 119 µM (inactive),1.27 µM (active)
> 7.94 µM (inactive),> 7.94 µM (inactive),1.26 µM (active),0.0158 µM (active),CS(=O)(=O)N(Cc1ccc2[nH]c(=O)c3cccn3c2c1)C1CC1,–,–
